System: nuclear PtdIns4P and PtdIns5P in differentiated MEL cells
Assay: Mass assay of nuclear PtdIns4P and PtdIns5P in differentiated MEL cells
Format: cell-based, Murine
Settings: NAC 5 mM or BSO 100 μM for 4 hours, H2O2 500 μM for 15 minutes, vs control-treated cells
Experimental: B) Differentiated MEL cells were treated with NAC (5 mM) or BSO (100 μM), each for 4 hours, or H2O2 (500 μM) for 15 minutes prior to the isolation of intact nuclei. A mass assay was used to determine the levels of PtdIns4P and PtdIns5P. The results are expressed as % of control-treated differentiated MEL cells and are calculated from 3 independent experiments.
MEL, HEK 293 and HT1080 cells were maintained in routine culture using 10% FCS in DMEM. When required, differentiated MEL cells were prepared by the addition of 1.5% DMSO to the culture medium for a period of 4 days. MEL cells were transfected using Effectene (Qiagen), HEK 293 cells with calcium phosphate and HT1080 with LT1 (Mirus corporation). The following plasmids were used: pEGFP, pCDNA3 (both from Clontech), pCDNA3-Flag-MKK6+ and pCDNA3-Flag-MKK6-(from Dr. M. Schmidt, The Netherlands Cancer Institute), pSuper (from Dr. R. Agami, The Netherlands Cancer Institute), pCDNA3-EGFP-IpgD/IpgE, pCDNA3-EGFP-PIP kinase typeIIβ, and RNAi for type II β PIP kinase (termed pSuper-IIβRNAi). The targeting sequence for the latter was […]. Irradiation of the cells with 254 nm UV-C light (0-200 J/m) or gamma rays (0-40 Gy, from a Cesium 137 source) was performed using 6-well or 10 cm plastic petri dishes with a depth of medium covering the cells not exceeding 3-4 mm. Thereafter, the cells were returned to normal culture conditions for 30 minutes before subcellular fractionation was started. To determine long terms effects of UV and gamma irradiation the cells were returned to normal culture conditions for up to 48 hours.
MEL cells were washed, twice in ice cold PBS before their fractionation using a detergent-free hypotonic buffer. This method yields a mixed cytosol and membrane fraction and intact nuclei after separation using a sucrose cushion. MEL cell nuclei were fractionated into nucleoplasm and the CEF using modifications of a previously published method. Briefly, intact MEL cell nuclei were resuspended in ice cold hypotonic buffer (3 mM EDTA, 0.2 mM EGTA and 1 mM DTT pH 7.85, with protease inhibitors) followed by forced passage (12 times) through a 25 gauge needle. After centrifugation (1700 g) the supernatant (the nucleoplasm) was saved. The pellet (CEF) was washed twice before resuspending by sonication in 10 mM TrisHCl, 10% sucrose, 10 mM MgCl2 pH 7.4, with protease inhibitors. The protein content of all fractions was determined using the Bradford reagent (BioRad). PtdIns4P and PtdIns5P were measured using in vitro mass assays employing recombinant type I and type II PIP kinases, respectively. The product PtdIns(4,5)P2 was separated by TLC. The amount of radioactivity found in PtdIns(4,5)P2 was proportional to the amount of PtdInsP isomer in the neomycin affinity-purified lipid extract.
However, no studies have determined a role for nuclear phosphoinositides or defined downstream protein targets mediating phosphoinositide-stress activated pathways. To study changes in nuclear phosphoinositides in response to cellular stress, we used Murine erythroleukaemia (MEL) cells as a model system because preparations of nuclei from these cells have been proven to be of high purity. To visualise changes in phosphoinositides, various independent methods were used. The mass level of both PtdIns4P and PtdIns5P were measured using an assay that relies on the differential in vitro specificities of type I and type II PIP kinases. […] Gamma irradiation (10 Gy) led to a small (approximately 20%) decrease in the PtdIns4P level but no detectable change in the level of PtdIns5P in whole nuclei (FIG. 1a). To determine if nuclear PtdInsPs were regulated by oxidative stress we treated differentiated MEL cells with H2O2, BSO (L-buthionine[S,R]-sulphoximine, a glutamyl-cysteine synthetase inhibitor, which increases intracellular reactive oxygen species (ROS)) or NAC. (N-acetyl-cysteine, which increases cellular glutathione levels and cell' capability to deal with ROS). […]

OO [H2O2]
level of nuclear PtdIns4P: increased | level of nuclear PtdIns5P: increased

From patent US20100092456A1, “METHODS OF TREATMENT” (priority 2006, published 2010)
